Where two headings read alike, the source gives them in different places.
Columns and labels:
[1] = hamster, Days -3 to 28, topical 1 mg/dose BID
[2] = test system: oral mucositis induced by acute radiation, left buccal cheek pouch
Procedure: Twenty-four (24) male Syrian Golden Hamsters were used in the study. Mucositis was induced by giving an acute radiation dose of 40 Gy directed to the left buccal cheek pouch on Day 0. Mucositis was evaluated clinically starting on Day 6, and continuing on alternate days until Day 28.
Mucositis was scored visually by comparison to a validated photographic scale, ranging from 0 for normal, to 5 for severe ulceration (clinical scoring). In descriptive terms, this scale is defined as described in Table 7 below: […]
A mucositis score of 3 or greater indicates ulcerative mucositis, a clinically significant threshold.
Statistical significance of observed differences was calculated using chi-squared analysis.
An analysis of the severity of mucositis was performed using the Mann-Whitney rank sum analysis to compare the visual mucositis scores for Groups 2 and 3 to the vehicle control group (Group 1) on each day of the analysis. In this analysis, 2 consecutive days of significant reduction in the mucositis score are generally required before it is regarded as clinically meaningful.
The significance of group differences observed in daily mucositis scores was determined using the Mann-Whitney rank sum test. This nonparametric statistic is appropriate for the visual mucositis scoring scale. The p-values for each calculation are shown. “x” denotes significant difference in mucositis scores. “y” denotes increase in comparison to vehicle Group […], “z” denotes decrease.
“y” denotes an increase in comparison to vehicle Group, “z” denotes decrease (improvement).

[3] = test system: primary human gingival epithelial cells (HGEPp); settings: pretreated 24 h at 50 to 800 ug/ml, then 0.3 mM H2O2 for 4 h; P<0.05 versus PC
Procedure: (§1) Pooled primary HGEPps were propagated in CnT-Prime epithelial culture medium provided by CellnTec on 100 mm petri dishes coated with 30 mg/ml Type I rat tail collagen (BD Biosciences) diluted in Dulbecco's phosphate-buffered saline (DPBS). […] The cells were harvested when they reached 70-90% confluency as observed by light microscopy. For routine cultivation, the medium was changed every 3 days. For both the cell viability and ROS assays, the cells from passages 3-7 were seeded at 5×10 3, 2.5×10 4, 5×10^4 cells/cm 2 density to grow cell monolayers in 24-well flat-bottomed tissue culture plates and acclimated overnight at 37° C. […]
(§2) Once the HGEPp cells were cultured and ready on the microplate, the media was removed from all the wells and discarded. […] Removed the plate cover and measured the absorbance of the wells, including the blanks at 570 nm. • 8. Determined the average values from triplicate readings after subtracting the average value for the blanks.
(§3) HGEPp cells were exposed to different concentrations of H2O2 for 4 h to examine H2O2-induced oxidative stress. The cells were exposed to 0-0.6 mM H2O2 for 4 h and cell viability was evaluated using the TACS MTT Cell Proliferation Assay Kit. The percentage of cell survival was determined using the ratio of the optical density (OD) of the test sample to the OD of the control×100%. […]

[4] = test system: reactive oxygen species within HGEPp cells; settings: 0.3 mM H2O2 for 4 h
Description: 2. measure the effect of recrystallized oltipraz and formulated oltipraz on hydroxyl, peroxyl and other reactive oxygen species within HGEPp cells, using Cell Biolabs' OxiSelect™ Intracellular ROS Assay Kit. This assay employs the cell-permeable fluorogenic probe 2′,7′-dichlorodihydrofluorescin diacetate (DCFH-DA) which diffuses into cells and is deacetylated by cellular esterases to a nonfluorescent DCFH which is then rapidly oxidized to highly fluorescent 2′,7′-dichlorodihydrofluorescein (DCF) by ROS.
Pooled primary HGEPps were propagated in CnT-Prime epithelial culture medium provided by CellnTec on 100 mm petri dishes coated with 30 mg/ml Type I rat tail collagen (BD Biosciences) diluted in Dulbecco's phosphate-buffered saline (DPBS). […] The cells were harvested when they reached 70-90% confluency as observed by light microscopy. For routine cultivation, the medium was changed every 3 days. […]
Prepared and mixed all reagents thoroughly before use. […] Once the HGEPp cells were cultured and ready on a microplate, the media was removed from all the wells and discarded. […] Fluorescence was read on a Fluorescence Plate Reader after 1 hour. […] Transferred 150 μL of the mixture to a fresh 24-well plate for fluorescence measurements at 530 nm. […]
Intracellular ROS was measured using a Spectramax M3 microplate reader.

[5] = test system: primary human gingival epithelial cells (HGEPp); experiment: cells; settings: Epithelial cell, 4 h, read-out: IC50 of H2O2 in HGEPp cells
Procedure: as §1, §2, §3

Structure (SMILES): Cc1c(-c2cnccn2)ssc1=S [Neat oltipraz, 4-methyl-5-(pyrazin-2-yl)-3H-1,2-dithiole-3-thione]
- mean daily percent body weight change (rate of weight gain) [1]: gained weight at a slower rate than those administered placebo
- Percent of Animals with Ulceration (Score ≥ 3) ([2]; Day 6): 0.0%
- Percent of Animals with Ulceration (Score ≥ 3) ([2]; Day 8): 0.0%
- Percent of Animals with Ulceration (Score ≥ 3) ([2]; Day 10): 0.0 z Percent
- Percent of Animals with Ulceration (Score ≥ 3) ([2]; Day 12): 50.0 y Percent
- Percent of Animals with Ulceration (Score ≥ 3) ([2]; Day 14): 100.0%
- Percent of Animals with Ulceration (Score ≥ 3) ([2]; Day 16): 100.0%
- Percent of Animals with Ulceration (Score ≥ 3) ([2]; Day 18): 100.0%
- Percent of Animals with Ulceration (Score ≥ 3) ([2]; Day 20): 100.0%
- Percent of Animals with Ulceration (Score ≥ 3) ([2]; Day 22): 100.0%
- Percent of Animals with Ulceration (Score ≥ 3) ([2]; Day 24): 50.0 z Percent
- Percent of Animals with Ulceration (Score ≥ 3) ([2]; Day 26): 25.0 z Percent
- Percent of Animals with Ulceration (Score ≥ 3) ([2]; Day 28): 25.0 z Percent
- effect on H2O2-induced decrease in HGEPp survival (MTT) [3]: promoted cell proliferation and reduced H2O2-induced decrease in HGEPp survival

Structure (SMILES): OO [Sample H2O2, hydrogen peroxide]
- ROS levels compared to normal control cells (100%) [4]: 128%
- IC50 [5]: 300 µM

Reference: patent US11426403B2 (ST IP Holding AG, priority 2016, dated 2022)
